{"source": "patent US20130051651A1", "about": "“QUANTITATIVE IMAGE ANALYSIS FOR WOUND HEALING ASSAY” (PURDUE RESEARCH FOUNDATION, priority 2010, published 2013)", "system": "MCF7 cells", "assay": "wound healing assay analysed with the quantitative image analysis algorithm", "assay_type": "cell-based", "description": "The wound healing assay, or “scratch” assay, is a traditional method used to study cell proliferation and migration. […] The cultures are then imaged over time using bright field or fluorescence microscopy to monitor the growth and migration of cells into the wound as it is healing.\nIllustrative embodiments of the quantitative image analysis algorithm 100 have been tested multiple times and have provided robust and dependable wound healing assay analysis. By way of example, the […] 102 of several wound healing assays were measured at 24 hour time points (up to 96 hours). […] In this experiment, the algorithm took 90 minutes to process five time points for each wound healing assay in a 96 well plate (i.e., a total of 480 bright point images 102 being analyzed). […]\nFurthermore, the data produced by the quantitative image analysis algorithm 100 matches traditional wound healing assay data. […]", "data": [{"substance": "neuregulin 2β", "values": [{"measurement": "percentage of wound healing using the wound area calculated by the algorithm", "setting": "MCF7 cells treated with varying doses, different time points, dose response 48 hours after wound creation (FIGS. 3A, 3B)", "result": "dose-dependent increase in healing"}, {"measurement": "healing curve (speed of wound healing)", "setting": "MCF7 cells, 4 different doses, treated versus untreated cells over time (FIG. 3A)", "result": "treated cells healed faster"}]}]}
